{"source": "patent US20060034925A1", "about": "“Tumor targeting drug-loaded particles” (priority 2004, published 2006)", "key": {"[1]": {"assay": "retention of PLGA microparticles in peritoneal cavity", "type": "in vivo, mice", "details": "intraperitoneal administration; at 24 hours", "text": "Localization and disposition of PLGA microparticles within the peritoneal cavity after intraperitoneal administration was studied using rhodamine-loaded fluorescence microparticles. The disposition was compared with that of rhodamine in solution."}, "[2]": {"tested_on": "Human RT4 bladder transitional bladder cancer cells", "assay": "cytotoxicity in RT4 cells, sulforhodamine B assay", "type": "cell-based"}, "[3]": {"tested_on": "multiple human tumor cells", "details": "treatment for 3 hours; cited from earlier work"}, "Hs766T": {"tested_on": "Hs766T", "assay": "cytotoxicity of paclitaxel, MTT assay", "type": "cell-based", "details": "Homo sapiens, read-out: concentration required to produce 50% cytotoxicity (IC50), 96 hour treatment, dissolved in water", "description": "(§1) Drug effect was measured using the microtetrazolium dye reduction (MTT) assay."}, "MIA-PaCa": {"tested_on": "MIA-PaCa", "assay": "cytotoxicity of paclitaxel, MTT assay", "type": "cell-based", "details": "Homo sapiens, MIA PaCa-2, read-out: concentration required to produce 50% cytotoxicity (IC50), 96 hour treatment, dissolved in water", "description": "as §1"}, "PANC1": {"tested_on": "PANC1", "assay": "cytotoxicity of paclitaxel, MTT assay", "type": "cell-based", "details": "Homo sapiens, PANC-1, read-out: concentration required to produce 50% cytotoxicity (IC50), 96 hour treatment, dissolved in water", "description": "as §1"}, "peritoneal cancer": {"tested_on": "peritoneal cancer", "details": "intraperitoneal administration in patients; cited from earlier work"}}, "data": [{"molecule": "CCN(CC)c1ccc2c(-c3ccccc3C(=O)O)c3ccc(=[N+](CC)CC)cc-3oc2c1", "note": "[rhodamine in solution, rhodamine]", "values": [{"measurement": "localization in the peritoneal cavity (fluorescence)", "setting": "[1]", "result": "could no longer be observed in the peritoneal cavity"}]}, {"molecule": "CC(=O)O[C@H]1C(=O)[C@@]2(C)[C@H]([C@H](OC(=O)c3ccccc3)[C@]3(O)C[C@H](OC(=O)[C@H](O)[C@@H](NC(=O)c4ccccc4)c4ccccc4)C(C)=C1C3(C)C)[C@]1(OC(C)=O)CO[C@@H]1C[C@@H]2O", "note": "[paclitaxel]", "values": [{"measurement": "IC50", "setting": "[2]; RT-4, 48 h, RT4, 48 hour treatment, immediate effect", "result": "11 ± 0.4", "unit": "nM"}, {"measurement": "IC50", "setting": "[2]; RT-4, 96 h, RT4, 96 hour treatment, immediate effect", "result": "4 ± 0.4", "unit": "nM"}, {"measurement": "IC50", "setting": "[2]; RT-4, RT4, 15 minute treatment, delayed effect measured at 96 hours", "result": "157 ± 6.6", "unit": "nM"}, {"measurement": "IC50", "setting": "[2]; RT-4, RT4, 2 hour treatment, delayed effect measured at 96 hours", "result": "33 ± 4.8", "unit": "nM"}, {"measurement": "concentration sufficient to induce apoptosis", "setting": "[3]", "result": 200, "unit": "nM"}, {"measurement": "IC50", "setting": "Hs766T", "result": 0.7, "unit": "nM"}, {"measurement": "IC50", "setting": "MIA-PaCa", "result": 0.7, "unit": "nM"}, {"measurement": "IC50", "setting": "PANC1", "result": 1.5, "unit": "nM"}]}, {"molecule": "N.N.[Cl][Pt][Cl]", "note": "[cisplatin]", "values": [{"measurement": "extension of survival time", "setting": "peritoneal cancer", "result": "about 20%"}]}]}
